Molecules are shown by their SMILES.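 Interpolation was linear, between the two tested concentrations surrounding the appropriate level; five concentrations were tested over 48 hours in 96-well plates. TGI is the concentration that stops growth completely.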

Among the test systems are SR leukemia; A549 NSCLC; COLO 205 colon; NCI-H226 lung; PC-3 prostate; HCT-116 colon; NCI-H460 lung; KM12 colon; BT-549 breast; HOP-62 NSCLC.
Test in all cases: NCI anticancer screen, dose series, 48 h

Take `c1cc2nnnn2nc1N1CCCC1`: the TGI in the experiment with SR leukemia, in the experiment with A549 NSCLC, in the experiment on COLO 205 colon, in the experiment on NCI-H226 lung, with PC-3 prostate and with HCT-116 colon was more than 100 µM throughout. Moreover, the TGI in the experiment on NCI-H460 lung and in the experiment on KM12 colon was more than 100 µM each time.

With `N#Cc1c(-c2ccccc2)nc(-c2ccccc2)sc1=S`, the TGI in the experiment with BT-549 breast, in the experiment on A549 NSCLC, in the experiment with COLO 205 colon, in the experiment on NCI-H226 lung, with HCT-116 colon and in the experiment with NCI-H460 lung was more than 100 µM each time. Further, the TGI in the experiment on HOP-62 NSCLC and with KM12 colon was more than 100 µM each time.

As to `COc1cc(Nc2c3ccccc3nc3ccccc23)ccc1NS(C)(=O)=O`, the TGI is 15.2 µM in the experiment on SR leukemia; 12.3 µM with A549 NSCLC; 16.1 µM in the experiment with COLO 205 colon; 23.5 µM in the experiment with NCI-H226 lung; more than 100 µM in the experiment on HCT-116 colon; 12 µM with NCI-H460 lung. This compound also had a TGI with HOP-62 NSCLC of 24.3 µM.

Take `O=C(O)CC[N+]1=CCC(c2ccccc2)(c2ccccc2)O1`: the TGI in the experiment on BT-549 breast, with A549 NSCLC, in the experiment on COLO 205 colon, in the experiment with NCI-H226 lung, in the experiment with PC-3 prostate and in the experiment on HCT-116 colon was more than 100 µM throughout. In addition, the TGI in the experiment on NCI-H460 lung and in the experiment on HOP-62 NSCLC was more than 100 µM each time.

`CCCCCC(=O)NC(=S)Nc1nn[nH]n1`: the TGI in the experiment on SR leukemia, with A549 NSCLC, with COLO 205 colon, in the experiment on PC-3 prostate, in the experiment with HCT-116 colon and with NCI-H460 lung was more than 100 µM in each case. Further, the TGI in the experiment on HOP-62 NSCLC and with KM12 colon was more than 100 µM throughout.

In the case of `O=C1c2ccccc2CCCCCCCCCCC12OCCCO2`, the TGI with A549 NSCLC was 91.9 µM; in the experiment on COLO 205 colon, 38.1 µM; in the experiment on NCI-H226 lung it was 97.2 µM; in the experiment on HCT-116 colon, 38.3 µM; in the experiment on NCI-H460 lung, more than 100 µM; in the experiment on HOP-62 NSCLC, more than 100 µM. Further, in the experiment on KM12 colon, the TGI is more than 100 µM.

As for `CCc1ccc2oc(-c3cc(O)c(-c4nc5cc(CC)ccc5o4)cc3O)nc2c1`, the TGI in the experiment with SR leukemia, in the experiment on A549 NSCLC, with COLO 205 colon, in the experiment with NCI-H226 lung, in the experiment on PC-3 prostate and with HCT-116 colon was more than 100 µM throughout. Also, the TGI with NCI-H460 lung and in the experiment on HOP-62 NSCLC was more than 100 µM each time.

As to `Nc1ccc2[nH]c3c(-c4ccccc4)nccc3c2c1`, the TGI was more than 100 µM in the experiment with A549 NSCLC; more than 100 µM in the experiment on COLO 205 colon; more than 86.1 µM in the experiment on NCI-H226 lung; more than 100 µM in the experiment with HCT-116 colon; more than 100 µM in the experiment on NCI-H460 lung; more than 100 µM in the experiment with HOP-62 NSCLC. Besides, in the experiment with KM12 colon, the TGI was more than 100 µM.

Consider `Cc1ccc2c(c1)[nH]c1cc(C(F)(F)F)ccc1[p+]2=O` (stereo not given), for which the TGI in the experiment on SR leukemia was more than 100 µM; in the experiment with A549 NSCLC, more than 100 µM; in the experiment on COLO 205 colon it was 31.5 µM; in the experiment on NCI-H226 lung, 70.5 µM; in the experiment with PC-3 prostate it was 73.5 µM; in the experiment on HCT-116 colon, more than 100 µM. Also, the TGI in the experiment on NCI-H460 lung, with HOP-62 NSCLC and in the experiment with KM12 colon was more than 100 µM throughout.

Turning to `COC(=O)C1=C(C(=O)OC)SC2(S1)C1=C(CCCC1)SC(C(=O)OC)=C2C(=O)OC`, the TGI in the experiment with BT-549 breast was 25.1 µM; with A549 NSCLC, 31.1 µM; with COLO 205 colon, 23.2 µM; in the experiment with PC-3 prostate it was 17.8 µM; with HCT-116 colon it was 2.92 µM; in the experiment on NCI-H460 lung, 15.7 µM. The TGI in the experiment with HOP-62 NSCLC was 17.8 µM; in the experiment on KM12 colon, 19 µM.

`O=C1c2ccccc2C(=O)N1Cc1ccccc1-c1c2nc(c(-c3ccccc3CN3C(=O)c4ccccc4C3=O)c3ccc([nH]3)c(-c3ccccc3CN3C(=O)c4ccccc4C3=O)c3nc(c(-c4ccccc4CN4C(=O)c5ccccc5C4=O)c4ccc1[nH]4)C=C3)C=C2`: the TGI in the experiment on SR leukemia, with A549 NSCLC, in the experiment with COLO 205 colon, with NCI-H226 lung, in the experiment with HCT-116 colon and with NCI-H460 lung was more than 100 µM throughout. Moreover, the TGI in the experiment on HOP-62 NSCLC and in the experiment with KM12 colon was more than 100 µM in each case.

As for `C1CCC2C(C1)CCCC2NC1=NCCO1` (stereo not given), the TGI in the experiment with SR leukemia, in the experiment on A549 NSCLC, in the experiment on COLO 205 colon, in the experiment on NCI-H226 lung, with PC-3 prostate and in the experiment with HCT-116 colon was more than 100 µM in each case. Moreover, the TGI in the experiment on NCI-H460 lung, in the experiment with HOP-62 NSCLC and in the experiment on KM12 colon was more than 100 µM in each case.

Turning to `Cc1cn(C2CC(n3cc(Cn4cc(Br)c(=O)[nH]c4=O)nn3)C(CO)O2)c(=O)[nH]c1=O` (stereo not given), the TGI in the experiment on BT-549 breast, in the experiment with A549 NSCLC, in the experiment on COLO 205 colon, in the experiment with PC-3 prostate, in the experiment on HCT-116 colon and in the experiment with HOP-62 NSCLC was more than 100 µM throughout. For the same compound, the TGI in the experiment with KM12 colon was more than 100 µM.

For `COc1ccc(O)cc1`, the TGI with SR leukemia, with A549 NSCLC, in the experiment with COLO 205 colon, with NCI-H226 lung, in the experiment on HCT-116 colon and with NCI-H460 lung was more than 100 µM throughout. Besides, the TGI in the experiment on HOP-62 NSCLC and with KM12 colon was more than 100 µM each time.

On to `NC1=NS(=O)(=O)Nc2nc(-c3ccc([N+](=O)[O-])cc3)[nH]c21`, for which the TGI in the experiment on SR leukemia, with A549 NSCLC, with COLO 205 colon, in the experiment on HCT-116 colon, with NCI-H460 lung and in the experiment on HOP-62 NSCLC was more than 100 µM throughout. The same compound had a TGI with KM12 colon of more than 100 µM.

Regarding `O=c1nc2c(c(-c3ccccc3Cl)[nH]1)COC/C2=C\c1ccccc1Cl`, the TGI with BT-549 breast, in the experiment on COLO 205 colon, in the experiment with NCI-H226 lung, in the experiment with PC-3 prostate, in the experiment on HCT-116 colon and with NCI-H460 lung was more than 100 µM in each case. Besides, the TGI in the experiment on HOP-62 NSCLC and with KM12 colon was more than 100 µM throughout.

The values are drawn from PubChem BioAssay (NCI).
